Laboratory results taken from patent US7816350B2, “Substituted [1,2,3] triazolo[4,5-D]pyrimidines as cdk inhibitors” (Institute of Experimental Botany ASCR, priority 2002, dated 2010).
Several values for one entry are separate records, joined by “and”; a condition that tells them apart may be missing. Equal entries are not always repeated.

Tests used:
β-adrenergic receptors = test: Modulation of the activity of β-adrenergic receptors, isoproterenol-induced cAMP synthesis in C6 glioma; assay type: cell-based; details: cAMP synthesis induced by 5 μM (−) isoproterenol, rat C6 glioma; for Effect: result in words; for IC50: read-out: I50
Protocol: Rat C6 glioma (ATCC N^o CCL107) was cultivated in monolayer in serum-free chemically defined medium containing Ham's F10/minimal essential medium (1:1 vol/vol), 2 mM L-glutamine, 1% (vol/vol) minimal essential medium vitamins (100×), 1% (vol/vol) minimal essential medium nonessential amino acids (100×), 100 U/ml penicillin, 100 μg/ml streptomycin and 30 nM sodium selenite. Incubation was at 37° C. in a humidified atmosphere. Assays were performed in the logarithmic growth phase at a density of 2.5×10^5 cells/cm^2. Intracellular cAMP synthesis was induced by addition of 5 μM (−) isoproterenol. After 30 min incubation at 37° C. the medium was removed and the cellular amount of cAMP determined using the cAMP-enzyme immunoassay kit of Amersham. The I50 is determined from a dose-response curve in duplicate (Table 7). The effect of seven 8-azapurine-analogs was measured after simultaneous addition with isoproterenol.
As P2Y1-like and A2 purinergic receptors, negatively and positively coupled to adenylate cyclase respectively, are present on rat C6 glioma it has to be determined if the modulation of the synthesis of cAMP is due to inhibition of the activation of β-adrenergic receptors by isoproterenol are due to activation of purinergic receptors.

p34^cdc2/cyclin B (CDC2) = molecular target: T1, p34^cdc2/cyclin B (CDC2) (Homo sapiens, UniProt P06493); test: CDK inhibition assay, p34cdc2/cyclin B kinase, histone H1 phosphorylation; assay type: biochemical
T1 construct: made in house; host or cells: Sf9 insect cells (baculovirus co-infection)
T1 sequence (P06493 whole entry, species assumed): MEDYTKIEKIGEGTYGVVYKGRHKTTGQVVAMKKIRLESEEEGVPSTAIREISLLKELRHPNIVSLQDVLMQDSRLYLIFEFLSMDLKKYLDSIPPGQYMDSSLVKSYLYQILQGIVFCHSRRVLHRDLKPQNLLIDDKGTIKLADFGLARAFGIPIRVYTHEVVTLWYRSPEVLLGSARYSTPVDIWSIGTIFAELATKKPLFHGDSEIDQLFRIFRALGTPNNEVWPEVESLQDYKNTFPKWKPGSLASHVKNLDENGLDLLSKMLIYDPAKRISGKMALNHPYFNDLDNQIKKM
T1 sequence (P14635 whole entry partner, species assumed): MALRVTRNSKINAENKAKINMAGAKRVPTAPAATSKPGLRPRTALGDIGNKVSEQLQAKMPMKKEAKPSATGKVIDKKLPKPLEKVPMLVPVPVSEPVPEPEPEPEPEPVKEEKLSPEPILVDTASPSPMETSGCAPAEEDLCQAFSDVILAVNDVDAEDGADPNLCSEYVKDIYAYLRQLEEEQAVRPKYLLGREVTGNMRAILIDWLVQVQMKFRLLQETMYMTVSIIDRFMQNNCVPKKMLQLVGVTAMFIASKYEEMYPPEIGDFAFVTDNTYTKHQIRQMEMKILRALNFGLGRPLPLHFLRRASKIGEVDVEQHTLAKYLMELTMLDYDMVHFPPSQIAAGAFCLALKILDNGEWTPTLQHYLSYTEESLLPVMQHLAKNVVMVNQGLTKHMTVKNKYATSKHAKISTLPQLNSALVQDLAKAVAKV
Protocol: (§1) Cyclin-dependent kinases (p34^cdc2, p33^cdk2) and cyclins (cyclin B, E) are produced in Sf9 insect cells coinfected with appropriate baculoviral constructs. The cells are harvested 68-72 hrs post infection in lysis buffer for 30 min on ice and the soluble fraction is recovered by centrifugation at 14.000 g for 10 min. The protein extract is stored at −80° C.
(§2) Lysis buffer: 50 mM Tris pH 7.4, 150 mM NaCl, 5 mM EDTA, 20 mM NaF, 1% Tween, 1 mM DTT, 0.1 mM PMSF, leupeptine, aprotonine.
(§3) To carry out experiments on kinetics under linear conditions, the final point test system for kinase activity measurement is used. The kinase is added to reaction mixture in such a way as to obtain linear activity with respect to the concentration of enzyme and with respect to time.
(§4) The p34^cdc2 and p33^cdk2 kinase inhibition determination involves the use of 1 mg/ml histone H1 (Sigma, type III-S) in the presence of 15 μM [γ-^32P]ATP ([…]) (Amersham) in a final volume of 20 μl. Kinase activity is determined at 30° C. in the kinase buffer.
(§5) Tested compounds are usually dissolved to 100 mM solutions in DMSO, final concentration of DMSO in reaction mixture never exceeds 1%. The controls contain suitable dilutions of DMSO.
(§6) After 10 min, addition 3×SDS sample buffer stops the incubations. Phosphorylated proteins are separated electrophoretically using 12.5% SDS polyacrylamide gel. The measurement of kinase activity is done using digital image analysis.
(§7) The kinase activity is expressed as a percentage of maximum activity, the apparent inhibition constants are determined by graphic analysis (FIG. 1).
(§8) Kinase buffer: 50 mM Hepes pH 7.4, 10 mM MgCl2, 5 mM EGTA, 10 mM 2-glycerolphosphate, 1 mM NaF, 1 mM DTT

IκB-α kinase = IκB-α kinase inhibitory activity, in vitro kinase assay; assay type: biochemical
MCF7 = test: In vitro cytotoxic activity, MTT assay, MCF7; assay type: cell-based; details: Homo sapiens, 72 hours
From the text: One of the parameters used, as the basis for colorimetric assays is the metabolic activity of viable cells. For example, a microtiter assay, which uses the tetrazolium salt MTT, is now widely used to quantitate cell proliferation and cytotoxicity. For instance, this assay is used in drug screening programs and in chemosensitivity testing. Because only metabolically active cells cleave tetrazolium salts, these assays detect viable cells exclusively. In the case of MTT assay, yellow soluble tetrazolium salt is reduced to coloured water-insoluble formazan salt. After it is solubilized, the formazan formed can easily and rapidly be quantified in a conventional ELISA plate reader at 570 nm (maximum absorbance). The quantity of reduced formazan corresponds to number of vital cells in the culture.
Human T-lymphoblastic leukemia cell line CEM; promyelocytic HL-60 and monocytic U937 leukemias; breast carcinoma cell lines MCF-7, BT549, MDA-MB-231; glioblastoma U87MG cells; cervical carcinoma cells HELA; sarcoma cells U2OS and Saos2; hepatocellular carcinoma HepG2; mouse immortalized bone marrow macrophages B2.4 and B10A.4; P388D1 and L1210 leukemia; B16 and B16F10 melanomas were used for routine screening of compounds. The cells were maintained in Nunc/Corning 80 cm^2 plastic tissue culture flasks and cultured in cell culture medium (DMEM with 5 g/l glucose, 2 mM glutamine, 100 U/ml penicillin, 100 μg/ml streptomycin, 10% fetal calf serum and sodium bicarbonate).
The cell suspensions that were prepared and diluted according to the particular cell type and the expected target cell density (2.500-30.000 cells per well based on cell growth characteristics) were added by pipette (80 μl) into 96/well microtiter plates. Inoculates were allowed a pre-incubation period of 24 hours at 37° C. and 5% CO2 for stabilisation. Four-fold dilutions of the intended test concentration were added at time zero in 20 μl aliquots to the microtiter plate wells. Usually, test compound was evaluated at six 4-fold dilutions. In routine testing, the highest well concentration was 266.7 μM, but it can be the matter of change dependent on the agent. All drug concentrations were examined in duplicates. Incubations of cells with the test compounds lasted for 72 hours at 37° C., in 5% CO2 atmosphere and 100% humidity. At the end of incubation period, the cells were assayed by using the MTT. Ten microliters of the MTT stock solution were pipetted into each well and incubated further for 1-4 hours. After this incubation period, formazan was solubilized by addition of 100 μl/well of 10% SDS in water (pH=5.5) followed by further incubation at 37° C. overnight. The optical density (OD) was measured at 540 nm with the Labsystem iEMS Reader MF (UK). The tumour cell survival (TCS) was calculated using the following equation: TCS=(ODdrug exposed well/mean ODcontrol wells)×100%. The IC50 value, the drug concentration lethal to 50% of the tumour cells, was calculated from the obtained dose response curves (FIG. 2).

K-562 = test: In vitro cytotoxic activity, MTT assay, K-562; assay type: cell-based; details: Homo sapiens, K562, 72 hours
p33^cdk2 (cyclin E) = molecular target: T2, p33^cdk2 (cyclin E) (Homo sapiens, UniProt P24941); test: CDK inhibition assay, p33cdk2 kinase, histone H1 phosphorylation; assay type: biochemical
T2 construct: made in house; host or cells: Sf9 insect cells (baculovirus co-infection)
Protocol: as §1, §2, §3, §4, §5, §6, §7, §8

CDK9 - cyclin T1 = CDK9 - cyclin T1 (Homo sapiens, UniProt P50750); test: CDK inhibitory activity, CDK9 - cyclin T1; assay type: biochemical
CDK9 - cyclin T1, sequence (P50750 whole entry): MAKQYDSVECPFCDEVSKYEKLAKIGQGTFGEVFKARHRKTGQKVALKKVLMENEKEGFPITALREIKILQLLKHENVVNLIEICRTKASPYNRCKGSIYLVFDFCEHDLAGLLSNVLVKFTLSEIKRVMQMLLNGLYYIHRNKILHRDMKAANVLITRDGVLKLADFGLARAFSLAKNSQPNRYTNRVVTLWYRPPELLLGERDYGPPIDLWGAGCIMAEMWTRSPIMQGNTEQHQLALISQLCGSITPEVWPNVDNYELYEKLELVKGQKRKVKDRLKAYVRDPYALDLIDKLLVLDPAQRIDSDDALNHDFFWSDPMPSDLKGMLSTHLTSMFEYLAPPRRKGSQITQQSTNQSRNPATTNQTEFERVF
CDK9 - cyclin T1, sequence (O60563 whole entry partner): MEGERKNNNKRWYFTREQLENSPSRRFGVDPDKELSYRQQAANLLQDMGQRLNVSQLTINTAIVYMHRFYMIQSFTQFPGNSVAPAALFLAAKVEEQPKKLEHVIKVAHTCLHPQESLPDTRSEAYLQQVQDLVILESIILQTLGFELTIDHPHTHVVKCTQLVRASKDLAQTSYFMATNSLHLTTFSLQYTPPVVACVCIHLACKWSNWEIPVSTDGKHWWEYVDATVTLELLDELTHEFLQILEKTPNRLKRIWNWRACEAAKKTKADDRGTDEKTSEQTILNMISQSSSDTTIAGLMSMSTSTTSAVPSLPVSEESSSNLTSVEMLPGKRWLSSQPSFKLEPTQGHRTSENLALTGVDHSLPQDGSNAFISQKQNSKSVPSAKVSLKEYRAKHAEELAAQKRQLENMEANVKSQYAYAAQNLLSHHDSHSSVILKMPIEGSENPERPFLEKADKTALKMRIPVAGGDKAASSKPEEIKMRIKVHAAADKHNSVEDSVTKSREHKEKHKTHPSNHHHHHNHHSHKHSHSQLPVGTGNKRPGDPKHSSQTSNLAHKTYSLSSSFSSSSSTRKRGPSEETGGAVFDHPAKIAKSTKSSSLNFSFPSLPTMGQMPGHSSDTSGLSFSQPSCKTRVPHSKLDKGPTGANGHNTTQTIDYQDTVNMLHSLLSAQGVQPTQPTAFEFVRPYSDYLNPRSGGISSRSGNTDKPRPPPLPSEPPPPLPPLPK

Row | Structure (SMILES) | IC50 (p34^cdc2/cyclin B (CDC2)) [µM] | IC50 (IκB-α kinase) | IC50 (p33^cdk2 (cyclin E)) [µM] | IC50 (CDK9 - cyclin T1) [µM] | other results
1 | CC(C)n1nnc2c(NCc3ccccc3)nc(NCCN)nc21 | > 100 | > 100 µM | – | – | Effect, fold activation (β-adrenergic receptors): 1.1-fold activation
2 | CC(C)n1nnc2c(NCc3ccccc3)nc(NCCCN)nc21 | > 100 | > 100 µM | – | – | Effect (β-adrenergic receptors): inhibition; IC50 (β-adrenergic receptors): 31 ± 2 µM
3 | CC(=O)Oc1ccccc1CNc1nc(N[C@@H](CO)C(C)C)nc2c1nnn2C(C)C | 10 | 85 µM | – | – | IC50 (MCF7): 24.1 µM; IC50 (K-562): 24 µM
4 | CC(=O)c1ccccc1CNc1nc(N[C@@H](CO)C(C)C)nc2c1nnn2C(C)C | 25 | > 100 µM | – | – | IC50 (MCF7): 40.8 µM; IC50 (K-562): 34.9 µM
5 | CC(C)[C@H](CO)Nc1nc(NCc2ccccc2O)c2nnn(C(C)C)c2n1 | 7 | > 100 µM | – | – | IC50 (MCF7): 24 µM; IC50 (K-562): 25 µM
6 | CC(=O)Oc1cccc(CNc2nc(N[C@@H](CO)C(C)C)nc3c2nnn3C(C)C)c1 | 20 | > 100 µM | – | – | IC50 (MCF7): 28.2 µM; IC50 (K-562): 31.7 µM
7 | CC(=O)c1cccc(CNc2nc(N[C@@H](CO)C(C)C)nc3c2nnn3C(C)C)c1 | 40 | > 100 µM | – | – | IC50 (MCF7): 47.6 µM; IC50 (K-562): 50.6 µM
8 | CC(C)[C@H](CO)Nc1nc(Nc2ccc(N)c(Cl)c2)c2nnn(C(C)C)c2n1 | 40 | > 100 µM | – | – | IC50 (MCF7): 22.5 µM; IC50 (K-562): 28.9 µM
9 | CC(C)[C@H](CO)Nc1nc(NCc2cccc(O)c2)c2nnn(C(C)C)c2n1 | 8 | 80 µM | – | – | IC50 (MCF7): 18 µM; IC50 (K-562): 17.5 µM
10 | CC[C@H](CO)Nc1nc(Nc2cccc(Cl)c2)c2nnn(C(C)C)c2n1 | 35 | > 100 µM and 80 µM | – | – | IC50 (MCF7): > 100 µM; IC50 (K-562): > 100 µM
11 | CC(C)C(CO)Nc1nc(NCc2ccccc2O)c2nnn(C(C)C)c2n1 (stereo not shown) | – | – | 6.9 | 2.5 | –
12 | CC(C)C(CO)Nc1nc(NCc2ccccc2)c2nnn(C(C)C)c2n1 (stereo not shown) | – | – | – | – | Effect (β-adrenergic receptors): inhibition; IC50 (β-adrenergic receptors): 32 ± 2 µM
13 | CC(C)n1nnc2c(NCc3ccccc3)nc(NCCCO)nc21 | – | – | 54.6 | 29.2 | –
14 | CC(C)n1nnc2c(Nc3cccc(Cl)c3)nc(NC3CCC(N)CC3)nc21 (stereo not shown) | – | – | 3.1 | 1.1 | –
15 | CC(C)n1nnc2c(NCc3ccccc3O)nc(NC3CCC(N)CC3)nc21 (stereo not shown) | – | – | 27.7 | 14.7 | –
16 | CC(C)n1nnc2c(NCc3cccc(O)c3)nc(NC3CCC(N)CC3)nc21 (stereo not shown) | – | – | > 10 | 1.7 | –
17 | CC(C)n1nnc2c(NCc3ccc(O)cc3)nc(NC3CCC(N)CC3)nc21 (stereo not shown) | – | – | > 10 | 1.4 | –
18 | OC1CCC(Nc2nc(Nc3cccc(Cl)c3)c3nn[nH]c3n2)CC1 (stereo not shown) | – | – | 0.1 | 8 | –
19 | CC(C)n1nnc2c(NCc3ccccc3O)nc(NC3CCC(O)CC3)nc21 (stereo not shown) | – | – | > 10 | 9.9 | –
20 | CC[C@H](CO)Nc1nc(NCc2ccc(O)cc2)c2[nH]nc(C(C)C)c2n1 | – | – | – | – | Effect, fold activation (β-adrenergic receptors): 1.2-fold activation
21 | CC[C@H](CO)Nc1nc(NCc2ccc(OC)c(O)c2)c2nnn(C(C)C)c2n1 | – | – | 6.4 | 2 | –
22 | CC[C@H](CO)Nc1nc(NCc2ccccc2)c2nnn(C(C)C)c2n1 | – | – | 23.2 | 11.5 | –
23 | COc1ccc(CNc2nc(NC3CCCCC3N)nc3c2nnn3C(C)C)cc1O (stereo not shown) | – | – | 7 | 1.7 | –
24 | CCCCCCNc1nc(NC(CO)c2ccccc2)c2nnn(C(C)C)c2n1 (racemic) | – | – | – | – | Effect (β-adrenergic receptors): inhibition; IC50 (β-adrenergic receptors): 12 ± 1 µM
25 | CC[C@H](CO)Nc1nc(NCc2cccc(O)c2)c2nnn(C(C)C)c2n1 [2-R-(1-hydroxymethyl)propylamino-6-(3-hydroxybenzyl)amino-9-isopropyl-8-azapurine] | 10 | 85 µM | – | – | Effect, fold activation (β-adrenergic receptors): 1.3-fold activation
26 | CC(C)C(CO)Nc1nc(NCc2cccc(O)c2)c2nnn(C(C)C)c2n1 (stereo not shown) [Example 9, 2-(1-Hydroxymethyl-2-methylpropylamino)-6-(3-hydroxybenzylamino)-9-isopropyl-8-azapurine] | – | – | – | – | melting point: 150 to 152 °C
27 | CC(C)C(CO)Nc1nc(Nc2cccc(Cl)c2)c2nnn(C(C)C)c2n1 (stereo not shown) [Example 10, 2-(1-Hydroxymethyl-2-methylpropylamino)-6-(3-chloroanilino)-9-isopropyl-8-azapurine] | – | – | – | – | melting point: 160 to 163 °C
28 | CC(C)n1nnc2c(NCc3ccccc3O)nc(N[C@H]3CC[C@H](N)CC3)nc21 [Example 12, 2-(trans-4-Aminocyclohexylamino)-6-(2-hydroxybenzylamino)-9-isopropyl-8-azapurine] | – | – | – | – | melting point: 120 to 123 °C
29 | Cc1nc(NCc2ccccc2)c2nnn(C(C)C)c2n1 [Example 15, 2-methyl-6-benzylamino-9-isopropyl-8-azapurine] | – | – | – | – | melting point: 133 to 139 °C
